# In patent US20090233937A1 (TAKEDA PHARMACEUTICAL COMPANY LIMITED, priority 2008, published 2009):
# Target: T1, HER2 kinase (HER2 intracellular domain) (Homo sapiens, UniProt P04626)
# T1 construct: made in house; host or cells: SF-21 insect cells infected with recombinant baculovirus BAC-HER2
# Assay: Determination of HER2 kinase inhibitory activity
# Format: biochemical
# Set-up: concentration or dose not given beside the values
# Conditions: compound at 1.0 μL (so in the source), [γ-32P]ATP, poly-Glu:Tyr (4:1) substrate
# Method: Human HER2 gene was cloned by RT-PCR using total RNA prepared from MCF7 cells as a template. The primer used for RT-PCR was prepared in consideration of the information of nucleotide sequence (Genbank Accession No. M11730) of HER2 gene by adding a nucleotide sequence encoding DYKDDDD peptide and a restriction enzyme recognition sequence to a nucleotide sequence (corresponding to 2176-3918 of Genbank Accession No. M11730 as a base, 676-1255 amino acids of Genbank Accession No. NP_004439 as a protein) encoding the HER2 intracellular domain region such that the protein contains an N-terminal DYKDDDD peptide tag. The primer nucleotide sequence is shown below.
# (§1) SF-21 cells were sown at 1×10^6 cells/mL in Sf-900II SFM medium (1 L, Invitrogen) containing 10% fetal bovine serum (trace), 50 mg/L gentamicin (Invitrogen) and 0.1% Pluronic F-68 (Invitrogen), and shaking culture was performed using a 2 L volume Erlenmeyer flask at 27° C., 100 rpm. After culturing for 24 hr, recombinant baculovirus BAC-HER2 (13.4 mL) was added, and the mixture was further cultured for 3 days. The culture medium was centrifuged at 2,000 rpm for 5 min to give virus-infected cells. The infected cells were washed with a phosphate buffered saline (Invitrogen), centrifuged under the same conditions, and the cells were preserved at −80° C. The cryopreserved cells were thawed in ice, suspended in buffer A (50 mM Tris buffer (30 mL, pH 7.4) containing 20% glycerol, 0.15 M NaCl) supplemented with Complete Protease Inhibitor (Boehringer), and ruptured 3 times with a Polytron homogenizer (Kinematica) at 20,000 rpm for 30 sec. The ruptured solution was clarified by centrifugation at 40,000 rpm for 30 min, and filtered with a 0.45 μm filter. The filtrate was passed through a column packed with Anti-FLAG M2 Affinity Gel (4 mL, Sigma-Aldrich) at a flow rate of about 0.5 mL/min. The column was washed with buffer A, and eluted with buffer A containing 100 μg/mL of FLAG peptide. The eluent was concentrated with Vivaspin 20 (Vivascience) having a molecular weight cut off of 30K. The concentrate was purified by gel filtration using Hi Load 16/60 Superdex 200 pg (GE Healthcare Bioscience) equilibrated with buffer A. The fractions containing HER2 intracellular domain were collected and cryopreserved at −80° C.
# HER2 kinase reaction was performed using a 96 well plate. As a buffer for kinase reaction, a buffer having a composition of 50 mM Tris-HCl (pH 7.5), 5 mM MnCl2, 2 mM dithiothreitol, 0.01% Tween-20 was used. The compound of the present invention was dissolved in dimethyl sulfoxide (DMSO), and diluted with the kinase reaction buffer so that DMSO concentration would be 0.1% during kinase reaction. This compound solution (10 μL) was mixed with a kinase reaction buffer (20 μL) containing HER2 intracellular domain (0.625 μg/mL) obtained in Experimental Example 1B and polypeptide substrate poly-Glu:Tyr (4:1) (Sigma Ltd., 12.5 μg/mL), and the mixture was stood at room temperature for 5 min. Then, a kinase reaction buffer (20 μL) containing 125 μM ATP and 45 μCi/mL [γ-^32P]ATP was added, and the kinase reaction was initiated with 50 μL of the final reaction mixture. A kinase reaction was performed at room temperature for 10 min, and the kinase reaction was quenched by addition of 20% TCA solution (50 μL). The mixture after completion of the reaction was stood at room temperature for 30 min, and acid insoluble fractions in the mixture after completion of the reaction were collected in a 96 well GF/C filter plate (PerkinElmer) using a cell harvester (PerkinElmer). Thereafter, the filter containing the acid insoluble fractions was washed with 3% phosphoric acid solution. After washing, the filter plate was dried at 45° C. for 60 min, and 25 μL of MicroScinti 0 (PerkinElmer) was added. The radioactivity was measured using TopCount (PerkinElmer). HER2 kinase inhibitory rate (%) of the test compound was calculated by the following formula: […]
# T1 sequence (P04626 676-1255): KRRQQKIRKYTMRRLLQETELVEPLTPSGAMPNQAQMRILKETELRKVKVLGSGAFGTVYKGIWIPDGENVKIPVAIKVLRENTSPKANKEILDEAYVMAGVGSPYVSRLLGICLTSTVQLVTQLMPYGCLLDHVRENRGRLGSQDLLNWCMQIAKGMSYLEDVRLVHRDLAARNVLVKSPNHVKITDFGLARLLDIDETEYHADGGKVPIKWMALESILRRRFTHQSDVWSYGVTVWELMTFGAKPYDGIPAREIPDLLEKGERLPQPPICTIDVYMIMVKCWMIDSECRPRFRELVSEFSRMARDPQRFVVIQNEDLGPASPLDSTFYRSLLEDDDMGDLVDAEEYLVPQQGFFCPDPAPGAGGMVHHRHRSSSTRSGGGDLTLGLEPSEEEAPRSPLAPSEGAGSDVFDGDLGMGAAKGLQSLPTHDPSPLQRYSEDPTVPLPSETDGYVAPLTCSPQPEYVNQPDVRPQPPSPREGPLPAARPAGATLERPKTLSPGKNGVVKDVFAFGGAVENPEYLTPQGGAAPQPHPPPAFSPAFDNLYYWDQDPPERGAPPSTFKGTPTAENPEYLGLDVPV
row,SMILES,inhibitory rate (%) at 1.0 μL [%]
1,"Cl.Cn1c(Cl)cc2ncnc(Nc3ccc(Oc4cccc5sncc45)c(Cl)c3)c21 [Example 2, N-[4-(1,2-benzoisothiazol-4-yloxy)-3-chlorophenyl]-6-chloro-5-methyl-5H-pyrrolo[3,2-d]pyrimidin-4-amine hydrochloride]",100
2,"CC(=O)NCCn1ccc2ncnc(Nc3ccc(Oc4cccc5sncc45)c(Cl)c3)c21 [Example 4, N-[2-(4-{[4-(1,2-benzoisothiazol-4-yloxy)-3-chlorophenyl]amino}-5H-pyrrolo[3,2-d]pyrimidin-5-yl)ethyl]acetamide]",100
3,"Clc1cc(N2CCn3ccc4ncnc2c43)ccc1Oc1cccc2sncc12 [Example 13, 4-[4-(1,2-benzoisothiazol-4-yloxy)-3-chlorophenyl]-5,6-dihydro-4H-pyrrolo[3,2,1-de]pteridine]",100
4,"OCCn1ccc2ncnc(Nc3ccc(Oc4ccc5cnsc5c4)c(Cl)c3)c21 [Example 20, 2-(4-{[4-(1,2-benzoisothiazol-6-yloxy)-3-chlorophenyl]amino}-5H-pyrrolo[3,2-d]pyrimidin-5-yl)ethanol]",98
5,"Cc1cc(Nc2ncnc3ccn(CCO)c23)ccc1Oc1cccc2sncc12 [Example 31, 2-(4-{[4-(1,2-benzoisothiazol-4-yloxy)-3-methylphenyl]amino}-5H-pyrrolo[3,2-d]pyrimidin-5-yl)ethanol]",100
6,"COc1cc(Nc2ncnc3ccn(CCO)c23)ccc1Oc1cccc2sncc12 [Example 44, 2-(4-{[4-(1,2-benzoisothiazol-4-yloxy)-3-methoxyphenyl]amino}-5H-pyrrolo[3,2-d]pyrimidin-5-yl)ethanol]",98
7,"CC(C)(CO)C(=O)NCCn1ccc2ncnc(Nc3cc(F)c(Oc4cccc5sncc45)c(Cl)c3)c21 [Example 52, N-[2-(4-{[4-(1,2-benzoisothiazol-4-yloxy)-3-chloro-5-fluorophenyl]amino}-5H-pyrrolo[3,2-d]pyrimidin-5-yl)ethyl]-3-hydroxy-2,2-dimethylpropanamide]",99
8,"CC(C)(N)C(=O)NCCn1ccc2ncnc(Nc3ccc(Oc4cccc5sncc45)c(Cl)c3)c21 [Example 60, N-[2-(4-{[4-(1,2-benzoisothiazol-4-yloxy)-3-chlorophenyl]amino}-5H-pyrrolo[3,2-d]pyrimidin-5-yl)ethyl]-2-methylalaninamide]",100

# Target: T2, EGFR kinase (EGFR intracellular domain) (Homo sapiens, UniProt P00533)
# T2 construct: made in house; host or cells: SF-21 insect cells infected with recombinant baculovirus BAC-EGFR
# T2 sequence (P00533 669-1210): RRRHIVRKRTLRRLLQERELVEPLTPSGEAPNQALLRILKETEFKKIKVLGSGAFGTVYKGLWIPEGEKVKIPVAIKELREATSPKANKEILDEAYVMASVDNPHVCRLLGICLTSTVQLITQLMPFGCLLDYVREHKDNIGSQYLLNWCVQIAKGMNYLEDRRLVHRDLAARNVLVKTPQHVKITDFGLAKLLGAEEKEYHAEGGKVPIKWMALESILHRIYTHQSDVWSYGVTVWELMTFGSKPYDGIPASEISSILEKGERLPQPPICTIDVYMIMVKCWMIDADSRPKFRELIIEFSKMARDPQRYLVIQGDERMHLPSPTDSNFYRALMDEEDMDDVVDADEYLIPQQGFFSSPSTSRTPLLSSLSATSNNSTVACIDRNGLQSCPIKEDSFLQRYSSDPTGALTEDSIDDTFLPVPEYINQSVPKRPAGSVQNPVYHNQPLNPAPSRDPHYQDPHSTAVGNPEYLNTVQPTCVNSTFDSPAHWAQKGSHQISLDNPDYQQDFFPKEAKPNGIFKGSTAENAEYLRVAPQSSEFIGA
# Assay: Determination of EGFR kinase inhibitory activity
# Format: biochemical
# Set-up: concentration or dose not given beside the values
# Conditions: compound at 1.0 μL (so in the source), [γ-32P]ATP, poly-Glu:Tyr (4:1) substrate
# Method: Human EGFR gene was cloned by RT-PCR using total RNA prepared from A431 cells as a template. The primer used for RT-PCR was prepared in consideration of the information of nucleotide sequence (Genbank Accession No. X00588) of EGFR gene by adding a nucleotide sequence encoding DYKDDDD peptide and a restriction enzyme recognition sequence to a nucleotide sequence (corresponding to 2191-3819 of Genbank Accession No. X00588 as a base, 669-1210 amino acids of Genbank Accession No. NP_005219 as a protein) encoding the EGFR intracellular domain region such that the protein contains an N-terminal DYKDDDD peptide tag. The primer nucleotide sequence is shown below.
# as §1, with “hrs,” for “hr,”, “BAC-EGFR” for “BAC-HER2”, “EGFR” for “HER2”
# EGFR kinase reaction was performed using a 96 well plate. As a buffer for kinase reaction, a buffer having a composition of 50 mM Tris-HCl (pH 7.5), 5 mM MnCl2, 2 mM dithiothreitol, 0.01% Tween-20 was used. The compound of the present invention was dissolved in dimethyl sulfoxide (DMSO), and diluted with the kinase reaction buffer so that DMSO concentration would be 0.1% during kinase reaction. This compound solution (10 μL) was mixed with a kinase reaction buffer (20 μL) containing EGFR intracellular domain (0.625 μg/mL) obtained in Experimental Example 2B and polypeptide substrate poly-Glu:Tyr (4:1) (Sigma Ltd., 12.5 μg/mL), and the mixture was stood at room temperature for 5 min. […] A kinase reaction was performed at room temperature for 10 min, and the kinase reaction was quenched by addition of 20% TCA solution (50 μL). The mixture after completion of the reaction was stood at room temperature for 30 min, and acid insoluble fractions in the mixture after completion of the reaction were collected in a 96 well GF/C filter plate (PerkinElmer) using a cell harvester (PerkinElmer). Thereafter, the filter containing the acid insoluble fractions was washed with 3% phosphoric acid solution. After washing, the filter plate was dried at 45° C. for 60 min, and 25 μL of MicroScinti 0 (PerkinElmer) was added. The radioactivity was measured using TopCount (PerkinElmer). EGFR kinase inhibitory rate (%) of the test compound was calculated by the following formula:
# Inhibitory rate (%)=(1−(count of test compound−blank)÷(control−blank))×100
row,SMILES,inhibitory rate (%) at 1.0 μL [%]
1,"Cn1ccc2ncnc(Nc3ccc(Oc4cccc5sncc45)c(Cl)c3)c21 [Example 1, N-[4-(1,2-benzoisothiazol-4-yloxy)-3-chlorophenyl]-5-methyl-5H-pyrrolo[3,2-d]pyrimidin-4-amine]",99
2,"CC(C)(CO)C(=O)NCCn1ccc2ncnc(Nc3ccc(Oc4cccc5sncc45)c(Cl)c3)c21 [Example 10, N-[2-(4-{[4-(1,2-benzoisothiazol-4-yloxy)-3-chlorophenyl]amino}-5H-pyrrolo[3,2-d]pyrimidin-5-yl)ethyl]-3-hydroxy-2,2-dimethylpropanamide]",98
3,"CC(=O)NCCn1ccc2ncnc(Nc3ccc(Oc4cccc5nscc45)c(Cl)c3)c21 [Example 12, N-[2-(4-{[4-(2,1-benzoisothiazol-4-yloxy)-3-chlorophenyl]amino}-5H-pyrrolo[3,2-d]pyrimidin-5-yl)ethyl]acetamide]",95
4,"CS(=O)(=O)CC(=O)NCCn1ccc2ncnc(Nc3ccc(Oc4cccc5sncc45)c(Cl)c3)c21.CS(=O)(=O)O [Example 24, N-[2-(4-{[4-(1,2-benzoisothiazol-4-yloxy)-3-chlorophenyl]amino}-5H-pyrrolo[3,2-d]pyrimidin-5-yl)ethyl]-2-(methylsulfonyl)acetamide methanesulfonate]",100
5,OCCn1ccc2ncnc(Nc3ccc(Oc4cccc5sncc45)c(Br)c3)c21 [Example 45],99
6,"CC(C)(N)CC(=O)NCCn1ccc2ncnc(Nc3ccc(Oc4cccc5sncc45)c(Cl)c3)c21 [Example 62, 3-amino-N-[2-(4-{[4-(1,2-benzoisothiazol-4-yloxy)-3-chlorophenyl]amino}-5H-pyrrolo[3,2-d]pyrimidin-5-yl)ethyl]-3-methylbutanamide]",99
